Assay: in vitro
Conditions: human, hela cells, % viability

Compound	viability at 28.5 h, 10 µM [%]	viability at 28.5 h, 10 µM (bulk resorufin, single well) [%]
CSc1cccc(CN2C[C@H]3CN(C(=O)C4CCC4)C[C@@]3(C(=O)O)C2)c1 [CBK307645]	88.4	
CNC(=O)c1ccc(-c2cnc(NCC3CCN(C(=O)OC(C)(C)C)CC3)cn2)cc1 [CBK173726]	111	
CC(C)[C@H](CO)Nc1nc(-c2ccc(F)c(Cl)c2)cnc1N [CBK063949]	109	
COc1cc(NC(=O)Nc2ccccc2OC)c(OC)cc1Cl [CBK270329]	95.7	
Oc1cc2cccnc2nc1-c1ccccc1 [CBK073697]	115	
COC(=O)CCc1sc(NC(=O)CSCC(=O)O)nc1-c1ccc(OC)cc1 [CBK296116]	93.6	
CN1CCN(CCOC(=O)NCc2ccnc3ccccc23)CC1 [CBK200148]	94	
CCN1CC(C(=O)NCc2ccc(CN3CCCCC3)cc2)CC1=O (centres unmarked) [CBK281400]	87.3	
COc1ccccc1-c1nccnc1N1CCCC1CO (centres unmarked) [CBK036735]	102	
Cc1ncccc1C(=O)NC(c1ccc(F)c(F)c1)c1nccn1C (centres unmarked) [CBK283809]	90.8	
CCOc1ccccc1-c1ccccc1NC(=O)c1nc2ccccc2n(C)c1=O [CBK285855]	90.1	
FC(F)(F)c1nc2ccccc2nc1OCCCc1ccncc1 [CBK115804]	85.1	
COc1ccnc(Cn2ncc(N3CCCC3)cc2=O)c1 [CBK304379]	87.5	
O=C(CSc1nn2cnnc2s1)Nc1ccc(I)cc1 [CBK268913]	88.2	
c1ccc(C(CCN2CCC[C@@H]2CN2CCCC2)c2ccccc2)cc1 [CBK149109]	89.7	
CC(=O)c1cnc2cc(-c3ccc(Cl)cc3)nn2c1C [CBK051484]	107	
COc1ccc(C2(C(=O)N[C@H]3CC[C@H](O)CC3)CC2)cc1 [CBK149840]	111	
COc1ccc(C2CC(Cn3cc(C(C)=O)c(=O)[nH]c3=O)ON2C)cc1 (centres unmarked) [CBK019386]	95.7	
O=C1NC2(Nc3ccccc31)C(=O)N(Cc1cccc3ccccc13)c1ccccc12 (centres unmarked) [CBK264954]	108	
c1ccc(SCCCSc2ccccn2)cc1 [CBK021704]	87	
CC(C)NS(=O)(=O)c1ccc(NS(=O)(=O)c2cc(C(=O)O)ccc2Cl)cc1 [CBK296951]	99.5	
O=C(/C=C/c1ccco1)Nc1cccc2c(NC(=O)/C=C/c3ccco3)cccc12 [CBK264974]	99.7	
O=C(NCc1ccccc1)c1ccc(N2CCOCC2)nc1 [CBK200244]	96.3	

Compound	viability at 28.5 h, 10 µM [%]	viability at 28.5 h, 10 µM (bulk resorufin, single well) [%]
O=C(CCC(=O)c1ccc(Cl)cc1)OCC(=O)c1cccc(I)c1 [CBK264760]	89.9	
NC(=O)CC[n+]1ccc2ccccc2c1 [CBK022857C]	110	
O=C(O)CCC(=O)N1CCC(c2nnc3ccccn23)CC1 [CBK287920]	104	
O=C(O)c1cc(-c2cc(Cl)ccc2Cl)nc2ccccc12 [CBK265391]	96.1	
COCCN(C(=O)CSc1ccc2ccccc2n1)C1CCS(=O)(=O)C1 (centres unmarked) [CBK304988]	96.4	
O=C(NCCCn1ccnc1)c1cc(-c2ccccc2Cl)nc2ccccc12 [CBK262656]	95.2	
O=C(Nc1cccc(C=Cc2ccccn2)c1)c1c[nH]nc1-c1ccc(F)cc1 [CBK295335]	78	
COc1ccc(Cl)cc1S(=O)(=O)N1CCC(C(=O)NCCCO)CC1 [CBK269835]	99	
CCCc1c(Cc2c(Cl)cccc2Cl)c(=O)n(C)n1C [CBK115466]	93	
Cc1cc2nc(-c3ccc(C(=O)O)cc3)[nH]c2cc1C [CBK096054]	91.6	
Cc1csc(C(Cc2cccs2)NCC2CCOC2)n1 (centres unmarked) [CBK285051]	110	
COC[C@@H]1CCCN1S(=O)(=O)c1ccc(Cl)c(Cl)c1 [CBK044313]	91.3	
Cc1nn(C)c(Cl)c1S(=O)(=O)Nc1cccc(-c2nnn[nH]2)c1 [CBK062127]	96	
COc1cc(CN2CCN(C(=O)c3cccc(F)c3)CC2)cc(OC)c1O [CBK074633]	95.2	
Cc1ncc(CN(C)C(=O)c2cccc(NC(=O)C3CCCCC3)c2)s1 [CBK306295]	83	
COc1cc(CN2CCN(C/C=C/c3ccccc3)CC2)c([N+](=O)[O-])cc1OC [CBK261550]	86.4	
Cc1cc(C2CCCN2C(=O)c2cnn3c(C)cc(C)nc23)on1 (centres unmarked) [CBK305634]	109	
Cc1ccc(Cl)c(OC(C)C(=O)N2CCN(c3ccccn3)CC2)c1 (centres unmarked) [CBK304650]	90.4	
COc1ccc(CCN2CN=C(SCc3ccc(Cl)cc3)NC2)cc1OC [CBK074665C]	95.3	
NC(=O)CSc1nnc2ccc3ccccc3n12 [CBK287794]	110	
O=C(NCC(F)(F)F)c1cnc(-c2ccc(Cl)cc2)c(-c2ccco2)c1 [CBK037468]	86.2	
CCN(Cc1ccccc1)Cc1ccco1 [CBK261884]	111	
Cc1nc(C2(O)CCCN(C3CCCC3)CC2)sc1COc1ccc(F)c(F)c1 (centres unmarked) [CBK286259]	89.7	

Compound	viability at 28.5 h, 10 µM [%]	viability at 28.5 h, 10 µM (bulk resorufin, single well) [%]
COc1cc(-c2nccnc2NCc2ccco2)cc(OC)c1OC [CBK037072]	111	
Brc1cccc(-c2cn3ccnc3c(NC3CCOCC3)n2)c1 [CBK066291]	101	
CCCOC(=O)c1c(NC(=O)C2C3C=CC(C3)C2C(=O)O)sc2c1CCC(C)C2 (centres unmarked) [CBK265473]	87.5	
CN(C)C(CNC(=O)Nc1cccc(C(=O)NC2CC2)c1)c1cccs1 (centres unmarked) [CBK305565]	115	
O=C(O)c1cc(-c2c[nH]c3ccc(Cl)cc23)[nH]n1 [CBK287257]	95	
O=C(CCn1cnc2cc(-c3noc(-c4cnccn4)n3)ccc21)N1CCCC1 [CBK288595]	104	
O=C(O)CCSc1ccnc2ccccc12 [CBK122524C]	93.2	
CS(=O)(=O)c1ccc(Cn2c(=O)[nH]c3ncc(-c4cccc(/C=C/C(=O)O)c4)nc32)cc1 [CBK065059]	97.7	
CC(=O)c1cccc(NC(=O)N(Cc2ccco2)CC2CCCO2)c1 (centres unmarked) [CBK304467]	104	
Cc1nn(Cc2cccc(C(=O)Nc3ccc(S(=O)(=O)N4CCCCC4)cc3)c2)c(C)c1Cl [CBK265815]	81.9	
CCC(Sc1nc2ccc(F)cc2[nH]1)C(=O)O (centres unmarked) [CBK287174]	106	
O=C(N[C@H]1CCN2C(=O)N(CCCl)C(=O)[C@@H]2C1)c1ccncc1 [CBK289551]		88.3
O=C(CNS(=O)(=O)c1ccc(Br)cc1)NCc1cccnc1 [CBK266295]	97.2	
O=C(CCCc1ccccc1)Nc1ccccc1C(=O)O [CBK265516]	97.4	
CC(C)C(=O)Nc1c(-c2ccsc2)cnc2ncccc12 [CBK083714]	88.7	
COc1ccc(OCCNC(=O)c2ccccc2-n2cccc2)cc1 [CBK149592]	95.6	
CC(=O)N1CCC(N2CC[C@H](c3nnc(-c4ccco4)o3)C2)CC1 [CBK289395]	86.9	
CN(C)c1nc(-c2cc(C(F)(F)F)cc(C(F)(F)F)c2)ccc1C(=O)NCc1ccco1 [CBK106094]	89.5	
O=C(CC(C(=O)O)C1CCCO1)Nc1ccc(Cl)cc1Cl (centres unmarked) [CBK261509]	86.2	
O=C(Nc1cc(NC(=O)C2C3C=CC(C3)C2C(=O)O)ccc1Cl)c1cccs1 (centres unmarked) [CBK263959]	89.6	
COCCN1C(=O)CC2(C1=O)C(=O)N(CC(=O)c1ccccc1)c1ccccc12 (centres unmarked) [CBK075875]	99	
O=C1NC(=O)c2cc(S(=O)(=O)NCCCO)cc3cccc1c23 [CBK267602]	110	
Cn1cccc1CNCc1ccccn1 [CBK269818C]	96	

Compound	viability at 28.5 h, 10 µM [%]	viability at 28.5 h, 10 µM (bulk resorufin, single well) [%]
COc1cc(NC(=S)NCc2ccc(S(N)(=O)=O)cc2)cc(OC)c1 [CBK264935]	108	
COc1ccc(CC(=O)N2CCC(C3OCc4cc(-c5ccc(C(=O)N(C)C)cc5)ccc4O3)CC2)cc1 (centres unmarked) [CBK149759]	88.2	
O=[N+]([O-])c1cc(S(=O)(=O)Nc2ccc3cn[nH]c3c2)ccc1Cl [CBK067160]	91.1	
O=C1NC2(CCCC2)N=C1c1ccc(Cl)cc1Cl [CBK288042]	82.4	
COc1ccc(/C=C2/SC(=O)N(CCNC3=NS(=O)(=O)c4ccccc43)C2=O)cc1 [CBK265545]	83.4	
COc1cccc(Cc2c(C)nc3c(C(=O)NCC4COc5ccccc5O4)cnn3c2C)c1 (centres unmarked) [CBK162064]	111	
CCc1nc2cc(NC(=O)Cn3cc(C)cn3)ccc2n1CC [CBK281608]	84.9	
O=C(CCN1CCN(CCO)CC1)Nc1ccc2c(c1)CCC2 [CBK264262C]	93.2	
O=C(O)c1cccc(S(=O)(=O)N2CCC(C(=O)O)CC2)c1 [CBK267199]	93.6	
COCCNC(=O)CC1Sc2ccccc2NC1=O (centres unmarked) [CBK268443]	98.9	
Cc1n[nH]c(C)c1CCC(=O)N/N=C\c1cccc(Oc2ccccc2)c1 [CBK263384]	98.8	
CN(C)CCN(C)Cc1ccc2ccc3cccc4ccc1c2c34 [CBK261860]	103	
CCn1c(CN2CC(C)CC(C)C2)nc2c1c(=O)n(C)c(=O)n2C (centres unmarked) [CBK306030]	84.4	
Cn1c(COc2ccccc2)nnc1SCC(=O)c1cccc([N+](=O)[O-])c1 [CBK268397]	101	
COc1ccc(Oc2coc3c(CN(C)C)c(O)ccc3c2=O)cc1 [CBK263653]	95.7	
COc1cc(Nc2cc(-c3cccc(N)c3)nc3ccnn23)cc(OC)c1OC [CBK037236]	105	
CC(C)[C@@H](CO)Nc1nc(-c2cc(C(F)(F)F)cc(C(F)(F)F)c2)cn2ccnc12 [CBK037496]	84.9	
COc1ccc(C(C)C)cc1-c1ccc(C(=O)N2CCN(C)CC2)c(N(C)C)n1 [CBK106130]	88	
CC(NC(=O)C1CC(=O)OC1(C)C)c1ccc2c(c1)CCCO2 (centres unmarked) [CBK281613]	88.4	
Cn1cc(C(Nc2cccc(C#N)n2)[C@H]2C[C@H](O)C2)cn1 (some centres unmarked) [CBK307011]	105	
